According to PubChem BioAssay AID330 (DTP/NCI, 2004):
Where “and” joins values, the source holds several entries; their conditions need not be identical. Equal values may be shown once. Toxic doses and inconclusive results are not listed. How the source made its calls: active means survival T/C of 150% or more; inactive means T/C below 125% in these data.

Test system: P388 leukemia ip, CD2F1 mice, survival T/C
Assay: NCI In Vivo Anticancer Drug Screen. Data for tumor model P388 Leukemia (intraperitoneal) in CD2F1 (CDF1) mice
Settings: endpoint: median survival time, higher = longer survival
Procedure, shortened: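 Mice carrying the transplanted tumor received test compound or vehicle. Survival was recorded in each group, and the value is the treated-group measurement divided by that of the vehicle-treated control group.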

[1] = dose: 50.0 mg/kg/injection, schedule: Q01DX005 (ip), vehicle: saline with Tween-80
[2] = dose: 100.0 mg/kg/injection, schedule: Q01DX005 (ip), vehicle: saline with Tween-80
[3] = dose: 50.0 mg/kg/injection, schedule: Q01DX009 (ip), vehicle: saline with Tween-80
[4] = dose: 100.0 mg/kg/injection, schedule: Q01DX009 (ip), vehicle: saline with Tween-80
[5] = dose: 200.0 mg/kg/injection, schedule: Q01DX009 (ip), vehicle: saline with Tween-80
[6] = dose: 60.0 mg/kg/injection, schedule: Q01DX005 (ip), vehicle: saline with Tween-80
[7] = dose: 120.0 mg/kg/injection, schedule: Q01DX005 (ip), vehicle: saline with Tween-80
[8] = dose: 240.0 mg/kg/injection, schedule: Q01DX005 (ip), vehicle: saline with Tween-80
[9] = dose: 50.0 mg/kg/injection, schedule: Q01DX005 (ip), vehicle: saline
[10] = dose: 100.0 mg/kg/injection, schedule: Q01DX005 (ip), vehicle: saline
[11] = dose: 50.0 mg/kg/injection, schedule: Q01DX005 (ip), vehicle: Klucel (hydroxypropylcellulose) (HPC)
[12] = dose: 100.0 mg/kg/injection, schedule: Q01DX005 (ip), vehicle: Klucel (hydroxypropylcellulose) (HPC)
[13] = dose: 200.0 mg/kg/injection, schedule: Q01DX005 (ip), vehicle: Klucel (hydroxypropylcellulose) (HPC)
[14] = dose: 12.5 mg/kg/injection, schedule: Q01DX009 (ip), vehicle: water
[15] = dose: 25.0 mg/kg/injection, schedule: Q01DX009 (ip), vehicle: water
[16] = dose: 50.0 mg/kg/injection, schedule: Q01DX009 (ip), vehicle: water
[17] = dose: 100.0 mg/kg/injection, schedule: Q01DX009 (ip), vehicle: water
[18] = dose: 200.0 mg/kg/injection, schedule: Q01DX005 (ip), vehicle: saline with Tween-80
[19] = dose: 60.0 mg/kg/injection, schedule: Q01DX005 (ip), vehicle: Klucel (hydroxypropylcellulose) (HPC)
[20] = dose: 120.0 mg/kg/injection, schedule: Q01DX005 (ip), vehicle: Klucel (hydroxypropylcellulose) (HPC)
[21] = dose: 240.0 mg/kg/injection, schedule: Q01DX005 (ip), vehicle: Klucel (hydroxypropylcellulose) (HPC)
[22] = dose: 12.5 mg/kg/injection, schedule: Q01DX005 (ip), vehicle: Klucel (hydroxypropylcellulose) (HPC)
[23] = dose: 25.0 mg/kg/injection, schedule: Q01DX005 (ip), vehicle: Klucel (hydroxypropylcellulose) (HPC)
[24] = dose: 100.0 mg/kg/injection, schedule: Q01DX009 (ip), vehicle: Klucel (hydroxypropylcellulose) (HPC)

Measured: T/C

COC(=O)C1=CO[C@@H](C)[C@@H]2CN3CCc4c([nH]c5cc(OC)ccc45)[C@@H]3C[C@H]12
inactive: [1] 96 % of control | [2] 92 % of control

Cc1cccc(OCC(O)CNC(C)(C)C)c1C (stereo unspecified)
inactive: dose: 12.5 mg/kg/injection, schedule: Q01DX009 (ip), vehicle: saline with Tween-80 99 % of control | dose: 25.0 mg/kg/injection, schedule: Q01DX009 (ip), vehicle: saline with Tween-80 98 % of control | [3] 99 % of control | [4] 99 % of control

Cc1cc(C(F)(F)F)nc(NNc2nc(C)cc(C(F)(F)F)n2)n1
inactive: [3] 102 % of control | [4] 88 % of control | [5] 88 % of control

Cc1cc(=O)c2c(=O)n(-c3ccccc3)[nH]c2[nH]1
inactive: [6] 111 % of control | [7] 109 % of control | [8] 100 % of control

O=C(NC(CO)C(=O)O)c1ccccc1 (stereo unspecified)
inactive: [9] 100 % of control | [10] 100 % of control | dose: 200.0 mg/kg/injection, schedule: Q01DX005 (ip), vehicle: saline 100 % of control

CCOC(=O)/C(C(=N)c1nc(C)c(C(=O)OCC)c(C(N)=O)n1)=C(/C)O
inactive: [11] 113 % of control | [12] 102 % of control and 90 % of control | [13] 90 % of control and 94 % of control

CC1=NNC2(CCCCC2)C1
inactive: [14] 113 % of control | [15] 103 % of control | [16] 94 % of control | [17] 111 % of control | dose: 200.0 mg/kg/injection, schedule: Q01DX009 (ip), vehicle: water 106 % of control

NCCNC[Si](c1ccccc1)(c1ccccc1)c1ccccc1
inactive: dose: 15.0 mg/kg/injection, schedule: Q01DX005 (ip), vehicle: saline with Tween-80 102 % of control | dose: 30.0 mg/kg/injection, schedule: Q01DX005 (ip), vehicle: saline with Tween-80 102 % of control

COc1cc(C(=O)C2OC2c2ccc(Cl)cc2)c([N+](=O)[O-])cc1OC (stereo unspecified)
inactive: [11] 93 % of control | [12] 98 % of control | [13] 96 % of control

CSc1c(C)n2c3c(cccc13)CCC2
inactive: [6] 108 % of control | [7] 96 % of control | [8] 100 % of control

CC(NC(=O)OCC1c2ccccc2-c2ccccc21)C(=O)O (stereo unspecified)
inactive: [11] 103 % of control | [12] 98 % of control | [13] 96 % of control

C=C(C)C1CC=C(C)C(OCCN(CC)CC)C1 (stereo unspecified)
inactive: [11] 100 % of control | [12] 103 % of control

CC(=O)Oc1ccc(N2C(=O)C3C(C2=O)C2c4ccccc4C3C3CCCCN32)cc1 (stereo unspecified) (tested in a mixture with another compound)
inactive: dose: 6.25 mg/kg/injection, schedule: Q01DX009 (ip), vehicle: water 101 % of control | [14] 111 % of control | [15] 104 % of control | [16] 102 % of control | [17] 104 % of control

O=C(O)c1n[nH]c2ccccc2c1=O
inactive: dose: 1.56 mg/kg/injection, schedule: Q01DX009 (ip), vehicle: other 101 % of control | dose: 3.13 mg/kg/injection, schedule: Q01DX009 (ip), vehicle: other 105 % of control | dose: 6.25 mg/kg/injection, schedule: Q01DX009 (ip), vehicle: other 97 % of control | dose: 12.5 mg/kg/injection, schedule: Q01DX009 (ip), vehicle: other 109 % of control | dose: 25.0 mg/kg/injection, schedule: Q01DX009 (ip), vehicle: other 110 % of control and 90 % of control

Cc1ccc(-n2c(=S)n(-c3ccccc3C)c3nc4ccccc4nc2/c3=N\Nc2ccc(Cl)cc2)cc1
inactive: [1] 92 % of control | [2] 88 % of control | [18] 95 % of control

CCOC(=O)c1ccccc1Nc1c(C(=O)OCC)cnc2cc3c(cc12)OCO3
inactive: [19] 106 % of control | [20] 98 % of control | [21] 97 % of control

COc1ccc2c3c1OC1c4[nH]ncc4C[C@H]4[C@@H](C2)N(C)CC[C@]314 (stereo partly specified)
inactive: dose: 100.0 mg/kg/injection, schedule: Q04DX002 (ip), vehicle: saline with Tween-80 108 % of control | dose: 200.0 mg/kg/injection, schedule: Q04DX002 (ip), vehicle: saline with Tween-80 99 % of control

CCN(CC)CCOc1ccc(C2c3cc(OC)ccc3CC2Cc2cccc(Cl)c2)cc1 (stereo unspecified)
inactive: dose: 6.25 mg/kg/injection, schedule: Q01DX005 (ip), vehicle: Klucel (hydroxypropylcellulose) (HPC) 98 % of control | [22] 95 % of control | [23] 96 % of control | [11] 93 % of control

Nc1nc(Cl)c2[nH]c(Cl)nc2n1
inactive: [22] 104 % of control | [23] 102 % of control | [11] 100 % of control and 96 % of control | [12] 99 % of control

CCOc1c(Br)cc(/C=C(\C)[N+](=O)[O-])cc1OC
inactive: [6] 112 % of control | [7] 106 % of control

CC(CCC1(O)OC2CC3C4CC=C5CC(OC6OC(CO)C(OC7OC(C)C(O)C(O)C7O)C(O)C6O)CCC5(C)C4CCC3(C)C2C1(C)C)COC1OC(C)C(O)C(O)C1O (stereo unspecified)
inactive: dose: 2.5 mg/kg/injection, schedule: Q01DX005 (ip), vehicle: Klucel (hydroxypropylcellulose) (HPC) 100 % of control | dose: 5.0 mg/kg/injection, schedule: Q01DX005 (ip), vehicle: Klucel (hydroxypropylcellulose) (HPC) 88 % of control

C/C=C(/C)C(=O)OC/C(=C/C)C(=O)OC1C=CC(C)(C)C(C=O)=C1C (stereo unspecified)
inactive: dose: 12.5 mg/kg/injection, schedule: Q01DX009 (ip), vehicle: Klucel (hydroxypropylcellulose) (HPC) 93 % of control | dose: 25.0 mg/kg/injection, schedule: Q01DX009 (ip), vehicle: Klucel (hydroxypropylcellulose) (HPC) 93 % of control | [24] 93 % of control

Cc1ccc(/C=C/C(=O)C(C)CN(C)C)cc1C (stereo unspecified)
inactive: [9] 106 % of control | [10] 109 % of control

CCN1c2ccccc2Sc2cc(C=O)ccc21
inactive: dose: 50.0 mg/kg/injection, schedule: Q01DX009 (ip), vehicle: Klucel (hydroxypropylcellulose) (HPC) 91 % of control | [24] 107 % of control | dose: 200.0 mg/kg/injection, schedule: Q01DX009 (ip), vehicle: Klucel (hydroxypropylcellulose) (HPC) 101 % of control

C/C(=N\NC(=S)N1CCN(c2ccccn2)CC1)c1ccccn1
inactive: dose: 12.5 mg/kg/injection, schedule: Q01DX005 (ip), vehicle: water 103 % of control | dose: 25.0 mg/kg/injection, schedule: Q01DX005 (ip), vehicle: water 108 % of control

Nc1c(C(=O)NCc2ccccc2)c2nc3c(C(=O)NCc4ccccc4)ccc(Br)c3oc-2c(Br)c1=O
inactive: [1] 98 % of control | [2] 86 % of control | [18] 89 % of control

CCCOn1nnc2ccccc21
inactive: dose: 100.0 mg/kg/injection, schedule: Q04DX003 (ip), vehicle: saline with Tween-80 99 % of control | dose: 200.0 mg/kg/injection, schedule: Q04DX003 (ip), vehicle: saline with Tween-80 102 % of control | dose: 400.0 mg/kg/injection, schedule: Q04DX003 (ip), vehicle: saline with Tween-80 107 % of control

CC(C)=NN(C)/C=N/S(=O)(=O)c1ccccc1
inactive: [11] 100 % of control | [12] 97 % of control | [13] 98 % of control

CCn1c(=NC(=O)c2ccccc2O)ccn1C
inactive: [19] 95 % of control | [20] 90 % of control | [21] 88 % of control

N=C(N)c1ccc2cc(C(=N)N)[nH]c2c1
inactive: dose: 6.25 mg/kg/injection, schedule: Q04DX003 (ip), vehicle: saline 100 % of control | dose: 12.5 mg/kg/injection, schedule: Q04DX003 (ip), vehicle: saline 100 % of control | dose: 25.0 mg/kg/injection, schedule: Q04DX003 (ip), vehicle: saline 107 % of control

CCOC(=O)N1CCNCC1
inactive: dose: 100.0 mg/kg/injection, schedule: Q04DX003 (ip), vehicle: saline 108 % of control | dose: 200.0 mg/kg/injection, schedule: Q04DX003 (ip), vehicle: saline 108 % of control

CCOC(=O)C(=CN(C)c1ccc(C)cc1)C(=O)OCC
inactive: [3] 100 % of control | [4] 103 % of control | [5] 95 % of control
